The source of these data is US8987314B2, “Amide, urea or sulfone amide linked benzothiazole inhibitors of endothelial lipase” (Bristol-Myers Squibb Company, priority 2012, dated 2015).

Read-outs that look alike come from different tables or passages of the source.

The target of one assay is hepatic lipase (HL) (Homo sapiens (Human), UniProt P11150). Kind of assay: HL assay: hepatic lipase activity with fluorescent substrate A10070 in DMPG vesicles. Type of assay: biochemical. An outline of the steps: (§1)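 EL from conditioned medium of HT-1080 cells engineered to overexpress endogenous EL; HL partially purified from conditioned medium of HL-overexpressing COS cells. Enzyme preincubated with compound 30 min at 37° C in 50 mM HEPES pH 8.0, 50 mM NaCl, 1 mM CaCl2; DMPG vesicles carrying FRET substrate (0.11 mole fraction) then added.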

The next assay concerns the target Endothelial lipase (EL) (Homo sapiens (Human), UniProt Q9Y5X9). Kind of assay: EL assay: endothelial lipase activity with fluorescent substrate A10070 in DMPG vesicles. It is filed as biochemical. An outline of the steps:
as §1

Where [1] appears, read: HL partially purified from conditioned media of COS cells, 30 min incubation with compound at 37° C., A10070/DMPG vesicles.
The mark [2] stands for this setting: EL from conditioned media of HT-1080 cells, 30 min incubation with compound at 37° C., A10070/DMPG vesicles.

Sequence of Endothelial lipase (EL) (Q9Y5X9 21-500): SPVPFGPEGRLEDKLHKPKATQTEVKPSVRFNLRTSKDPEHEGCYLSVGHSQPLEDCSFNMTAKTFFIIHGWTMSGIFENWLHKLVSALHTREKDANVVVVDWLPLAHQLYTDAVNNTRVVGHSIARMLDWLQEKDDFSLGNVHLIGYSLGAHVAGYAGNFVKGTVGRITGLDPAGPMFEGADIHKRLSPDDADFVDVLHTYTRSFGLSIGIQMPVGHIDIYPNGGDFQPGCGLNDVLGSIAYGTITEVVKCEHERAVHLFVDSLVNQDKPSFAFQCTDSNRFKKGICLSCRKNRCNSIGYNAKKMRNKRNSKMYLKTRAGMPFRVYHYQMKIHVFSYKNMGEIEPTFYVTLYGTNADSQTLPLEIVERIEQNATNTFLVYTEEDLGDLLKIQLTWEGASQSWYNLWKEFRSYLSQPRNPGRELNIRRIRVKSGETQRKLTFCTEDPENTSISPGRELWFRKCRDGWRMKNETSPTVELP
Sequence of hepatic lipase (HL) (P11150 23-499, species assumed): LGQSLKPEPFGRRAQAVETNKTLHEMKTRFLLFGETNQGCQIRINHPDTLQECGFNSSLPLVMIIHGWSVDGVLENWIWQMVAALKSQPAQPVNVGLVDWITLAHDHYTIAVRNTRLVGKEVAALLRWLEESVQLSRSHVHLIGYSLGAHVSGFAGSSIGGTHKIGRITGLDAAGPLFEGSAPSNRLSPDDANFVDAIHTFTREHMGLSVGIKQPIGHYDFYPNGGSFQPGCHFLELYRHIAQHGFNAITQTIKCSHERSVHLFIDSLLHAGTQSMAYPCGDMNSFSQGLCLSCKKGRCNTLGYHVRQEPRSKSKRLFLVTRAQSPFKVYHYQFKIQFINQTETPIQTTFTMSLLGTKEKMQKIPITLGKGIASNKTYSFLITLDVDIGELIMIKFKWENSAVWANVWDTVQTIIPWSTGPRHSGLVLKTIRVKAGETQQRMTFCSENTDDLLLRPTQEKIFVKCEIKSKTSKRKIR

What is called IC50 is the point on the concentration scale where inhibition reaches its midpoint. Turning to `NS(=O)(=O)CCNC(=O)C(c1nc2ccc(C(=O)N3CC(F)(F)C3)cc2s1)S(=O)(=O)CCC(F)(F)F` (stereo not shown) [Example B200, 2-(6-((3,3-difluoro-1-azetidinyl)carbonyl)-1,3-benzothiazol-2-yl)-N-(2-sulfamoylethyl)-2-((3,3,3-trifluoropropyl)sulfonyl)a-cetamide], the IC50 at hepatic lipase (HL) worked out at 10000 nM; at Endothelial lipase (EL) it was 26 nM.
In the same order, the values of `NS(=O)(=O)CCNC(=O)C(c1nc2ccc(C(=O)N3CCc4ccccc4C3)cc2s1)S(=O)(=O)CCC(F)(F)F` (stereo not shown) [Example B201, 2-(6-(3,4-dihydro-2(1H)-isoquinolinylcarbonyl)-1,3-benzothiazol-2-yl)-N-(2-sulfamoylethyl)-2-((3,3,3-trifluoropropyl)sulfonyl)a-cetamide] are 311 nM and 23 nM.
Regarding `COCCNC(=O)c1cccc(-c2ccc3nc(C(C(=O)NCCS(N)(=O)=O)S(=O)(=O)CCC(F)(F)F)sc3c2)c1` (stereo not shown) [Example B202, N-(2-methoxyethyl)-3-(2-(2-oxo-2-((2-sulfamoylethyl)amino)-1-((3,3,3-trifluoropropyl)sulfonyl)ethyl)benzo[d]thiazol-6-yl)benzamide], the IC50 at hepatic lipase (HL) (setting [1]) turned out to be 170 nM; on Endothelial lipase (EL) (setting [2]), 24 nM.
In the same order, the values of `Cc1cc2nc(C(C(=O)NCCS(N)(=O)=O)S(C)(=O)=O)sc2cc1-c1cnn(C)c1` (stereo not shown) [Example B203, 2-(5-methyl-6-(1-methyl-1H-pyrazol-4-yl)-1,3-benzothiazol-2-yl)-2-(methylsulfonyl)-N-(2-sulfamoylethyl)acetamide] are 141 nM and 10 nM.
Consider `COCCS(=O)(=O)C(C(=O)NCc1nnc(C)o1)c1nc2ccc(-c3ccccc3)cc2s1` (stereo not shown) [Example B204, 2-(2-methoxyethane-sulfonyl)-N-[(5-methyl-1,3,4-oxadiazol-2-yl)methyl]-2-(6-phenyl-1,3-benzothiazol-2-yl)a-cetamide], for which the values for the half-maximal inhibitory concentration (IC50) against hepatic lipase (HL) and on Endothelial lipase (EL) were 17.5 nM and 23.7 nM, respectively.
In the same order, the values of `COC(=O)CCS(=O)(=O)C(C(=O)NCc1nnc(C)o1)c1nc2ccc(-c3ccccc3)cc2s1` (stereo not shown) [Example B205, methyl 3-({[(5-methyl-1,3,4-oxadiazol-2-yl)meth-yl]carbamoyl}(6-phenyl-1,3-benzothiazol-2-yl)methanesulfonyl)pro-panoate] are 101 nM and 205 nM.
In the same order, the values of `CS(=O)(=O)C(C(=O)NCCS(N)(=O)=O)c1nc2ccc(-c3ccc(Cl)cc3)cc2s1` (stereo not shown) [Example B207, 2-[6-(4-chlorophenyl)-1,3-benzothiazol-2-yl]-2-methanesulfonyl-N-(2-sulfamoylethyl)acetamide] are 2.8 nM and 1.4 nM.
As for `CS(=O)(=O)C(C(=O)NCCS(N)(=O)=O)c1nc2ccc(-c3cccc(Cl)c3)cc2s1` (stereo not shown) [Example B208, 2-[6-(3-chlorophenyl)-1,3-benzothiazol-2-yl]-2-methanesulfonyl-N-(2-sulfamoylethyl)acetamide], the IC50 at hepatic lipase (HL) and against Endothelial lipase (EL) was 0.8 nM in each case.
On to `CS(=O)(=O)C(C(=O)NCCS(N)(=O)=O)c1nc2ccc(-c3cc(F)cc(Cl)c3)cc2s1` (stereo not shown) [Example B209, 2-[6-(3-chloro-5-fluorophenyl)-1,3-benzothiazol-2-yl]-2-methanesulfonyl-N-(2-sulfamoylethyl)acetamide], for which the IC50 at hepatic lipase (HL) was 13.9 nM; on Endothelial lipase (EL), 8 nM.
In the same order, the values of `CS(=O)(=O)C(C(=O)NCCS(N)(=O)=O)c1nc2ccc(-c3ccc(C(N)=O)cc3)cc2s1` (stereo not shown) [Example B214, 4-(2-{methanesulfonyl[(2-sul-famoylethyl)carbamoyl]meth-yl}-1,3-benzothiazol-6-yl)benzamide] are 160 nM and 1.6 nM.
The like results for `COCc1cccc(-c2ccc3nc(C(C(=O)NCCS(N)(=O)=O)S(C)(=O)=O)sc3c2)c1` (stereo not shown) [Example B215, 2-methanesulfonyl-2-{6-[3-(methoxymethyl)phen-yl]-1,3-benzothiazol-2-yl}-N-(2-sulfamoylethyl)a-cetamide] were, in that order, 3.6 nM and 4.4 nM.
In the same order, the values of `CS(=O)(=O)C(C(=O)NCCS(N)(=O)=O)c1nc2ccc(-c3ccc(C(=O)NC4CC4)cc3)cc2s1` (stereo not shown) [Example B216, N-cyclopropyl-4-(2-{methanesulfonyl[(2-sulfa-moylethyl)carbamoyl]meth-yl}-1,3-benzothiazol-6-yl)benzamide] are 155 nM and 2.1 nM.
As for `CC(C)Oc1ccc(-c2ccc3nc(C(C(=O)NCCS(N)(=O)=O)S(C)(=O)=O)sc3c2)cc1Cl` (stereo not shown) [Example B217, 2-{6-[3-chloro-4-(propan-2-yloxy)phenyl]-1,3-benzothiazol-2-yl}-2-methanesulfonyl-N-(2-sulfamoylethyl)acetamide], the IC50 against hepatic lipase (HL) turned out to be 3.6 nM; against Endothelial lipase (EL) it was 2.3 nM.
The like results for `CC(C)(C)OC(=O)n1ccc(-c2ccc3nc(C(C(=O)NCCS(N)(=O)=O)S(C)(=O)=O)sc3c2)c1` (stereo not shown) [Example B220, tert-butyl 3-(2-{methanesulfonyl[(2-sulfa-moylethyl)carbamoyl]meth-yl}-1,3-benzothiazol-6-yl)-1H-pyrrole-1-carboxylatc] were, in that order, 2.8 nM and 51.4 nM.
In the same order, the values of `CS(=O)(=O)C(C(=O)NCCS(N)(=O)=O)c1nc2ccc(-c3cnn(CCC(F)(F)F)c3)cc2s1` (stereo not shown) [Example B221, 2-methanesulfonyl-N-(2-sulfamoylethyl)-2-{6-[1-(3,3,3-trifluoropropyl)-1H-pyrazol-4-yl]-1,3-benzothiazol-2-yl}acetamide] are 308 nM and 78.1 nM.
In the same order, the values of `CS(=O)(=O)C(C(=O)NCCS(N)(=O)=O)c1nc2ccc(-c3cncs3)cc2s1` (stereo not shown) [Example B222, 2-methanesulfonyl-N-(2-sulfamoylethyl)-2-[6-(1,3-thiazol-5-yl)-1,3-benzothiazol-2-yl]a-cetamide] are 31.6 nM and 12.3 nM.
In the case of `CS(=O)(=O)C(C(=O)NCCS(N)(=O)=O)c1nc2ccc(-c3ccc(-c4nnc(N)s4)cc3)cc2s1` (stereo not shown) [Example B223, 2-{6-[4-(5-amino-1,3,4-thiadiazol-2-yl)phenyl]-1,3-benzothiazol-2-yl}-2-methanesulfonyl-N-(2-sulfamoylethyl)acetamide], the values for the IC50 at hepatic lipase (HL) and at Endothelial lipase (EL) were 7.7 nM and 1.2 nM, respectively.
The like results for `CS(=O)(=O)C(C(=O)NCCS(N)(=O)=O)c1nc2ccc(-c3ccc(-c4ncco4)cc3)cc2s1` (stereo not shown) [Example B224, 2-methanesulfonyl-2-{6-[4-(1,3-oxazol-2-yl)phen-yl]-1,3-benzothiazol-2-yl}-N-(2-sulfamoylethyl)a-cetamide] were, in that order, 10 nM and 8.4 nM.
In the same order, the values of `Cc1nnc(-c2ccc(-c3ccc4nc(C(C(=O)NCCS(N)(=O)=O)S(C)(=O)=O)sc4c3)cc2)o1` (stereo not shown) [Example B225, 2-methanesulfonyl-2-{6-[4-(5-methyl-1,3,4-oxadiazol-2-yl)phenyl]-1,3-benzothiazol-2-yl}-N-(2-sulfamoylethyl)a-cetamide] are 15.4 nM and 4.9 nM.
Regarding `NS(=O)(=O)CCNC(=O)C(c1nc2ccc(-c3ccc(C(=O)NC4CC4)cc3)cc2s1)S(=O)(=O)Cc1ccc(OC(F)(F)F)cc1` (stereo not shown) [Example B226, N-cyclopropyl-4-(2-{[(2-sulfamoylethyl)carbamoyl][4-(trifluoromethoxy)phen-yl]methanesulfonyl-methyl}-1,3-benzothiazol-6-yl)benzamide], the IC50 was 74 nM at hepatic lipase (HL) and 0.5 nM on Endothelial lipase (EL).
In the same order, the values of `NC(=O)c1ccc(-c2ccc3nc(C(C(=O)NCCS(N)(=O)=O)S(=O)(=O)Cc4ccc(OC(F)(F)F)cc4)sc3c2)cc1` (stereo not shown) [Example B227, 4-(2-{[(2-sulfamoylethyl)car-bamoyl][4-(trifluoromethoxy)phen-yl]methanesulfonyl-methyl}-1,3-benzothiazol-6-yl)benzamide] are 80.8 nM and 0.5 nM.
The like results for `NC(=O)c1ccc(-c2ccc3nc(C(C(=O)NCCS(N)(=O)=O)S(=O)(=O)CCC(F)(F)F)sc3c2)cc1` (stereo not shown) [Example B228, 4-(2-{[(2-sulfamoylethyl)car-bamoyl](3,3,3-trifluoro-propanesulfonyl)methyl}-1,3-benzothiazol-6-yl)ben-zamide] were, in that order, 250 nM and 9.2 nM.
The like results for `CN(C)C(=O)c1ccc(-c2ccc3nc(C(C(=O)NCCS(N)(=O)=O)S(=O)(=O)Cc4ccc(OC(F)(F)F)cc4)sc3c2)cc1F` (stereo not shown) [Example B229, 2-fluoro-N,N-dimethyl-4-(2-{[(2-sulfamoylethyl)car-bamoyl][4-(trifluoro-methoxy)phenyl]methane-sulfonylmethyl}-1,3-benzothiazol-6-yl)ben-zamide] were, in that order, 242 nM and 29.2 nM.
Regarding `CN(C)C(=O)c1ccc(-c2ccc3nc(C(C(=O)NCCS(N)(=O)=O)S(=O)(=O)CCC(F)(F)F)sc3c2)cc1F` (stereo not shown) [Example B230, 2-fluoro-N,N-dimethyl-4-(2-{[(2-sulfamoylethyl)car-bamoyl](3,3,3-trifluoro-propanesulfonyl)meth-yl}-1,3-benzothiazol-6-yl)benzamide], the IC50 against hepatic lipase (HL) came out at 37.4 nM; against Endothelial lipase (EL) it was 4.6 nM.
In the same order, the values of `COCCS(=O)(=O)C(C(=O)NCc1cc(C(C)C)no1)c1nc2ccc(-c3ccccc3)cc2s1` (stereo not shown) [Example B232, 2-(2-methoxyethane-sulfonyl)-2-(6-phenyl-1,3-benzothiazol-2-yl)-N-{[3-(propan-2-yl)-1,2-oxazol-5-yl]methyl}acetamide] are 0.8 nM and 45.9 nM.
The like results for `Cc1cc(CNC(=O)C(c2nc3ccc(-c4ccccc4)cc3s2)S(C)(=O)=O)on1` (stereo not shown) [Example B233] were, in that order, 3.6 nM and 31.6 nM.
